Laboratory results as given in US20110124842A1 (priority 2003, published 2011).
Read-outs that look alike come from different tables or passages of the source. Bridges are numbered along the chain shown (N, C = ends). Where no end group is shown, it is not given here. [ ]: non-standard residue; d: D form. code O = not defined here; Orn = NCCC[C@H](N)C(=O)O; Aib = CC(C)(N)C(=O)O

How the values were obtained:
IgG 4E10 = assay: Competitive ELISA (IC50): peptide competes with biotinylated 4E10-epitope peptide for IgG 4E10; type: binding, human; details: for increased binding affinity in comparison with its peptide control: 33-1 vs control 44-1, 104-2 vs control 104-1, ELISA; for higher affinity of 4E10 than to the original peptide KGND: as determined by surface plasmon resonance and ELISA
Method: IC50, were determined by competitive ELISA using a constant concentration of biotinylated peptide and IgG with a variable concentration of gp41 peptides. Microwells were coated overnight at 4° C. with 50 μl PBS containing neutravidin (Pierce; 4 μg/ml). […] A mixture of a biotinylated 4E10-epitope peptide, […](biotin)-NH2 (SEQ ID NO: 88) (20 nM), IgG 4E10 (0.2 nM), and the competing peptide analog (3-fold dilution series starting at 10 μM) in 0.4% non-fat dry milk, 0.02% Tween and PBS was incubated in a separate 96-well plate at 37° C. for 2 hours. After washing the blocked plate, the mixture of 4E10, biotinylated peptide and competing peptide was added to the wells. After 20 minutes at room temperature, the Wells were washed five times, and a 1:500 dilution of goat anti-human IgG F(ab′)2 HRP conjugate (Pierce) was added. Following incubation at RT for 40 minutes, the wells were washed five times, and developed by adding 50 μl of TMB solution (Pierce) according to the manufacturer's instructions. After ˜20 minutes, wells containing TMB solution were stopped by adding 50 μl of H2SO4 (2M) and the O.D. at 450 nm was read on a microplate reader (Molecular Devices). The concentration of competitor peptide corresponding to a half-maximal signal (IC50) was determined by interpolation of the resulting binding curve. Each peptide competitor was tested in duplicate in at least two separate experiments.
IC50s were determined by competitive ELISA using a constant concentration of biotinylated peptide and IgG with a variable concentration of gp41 peptides. Microwells were coated overnight at 4° C. with 50 μl PBS containing neutravidin (Pierce; 4 μg/ml). […] Meanwhile, a mixture of a biotinylated 4E10-peptide epitope, […](biotin)-NH2 (SEQ ID NO: 88), (20 nM), IgG 4E10 (0.2 nM), and the competing peptide analogue (3-fold dilution series starting at 10 μM) in 0.4% NFDM, 0.02% Tween and PBS was incubated in a separate 96-well plate at 37° C. for 2 h. After washing the blocked plate, the mixture of 4E10, biotinylated peptide and competing peptide was added to the wells. After 20 min at room temperature, the wells were washed five times, and a 1:500 dilution of goat anti-human IgG F(ab′)2 HRP conjugate (Pierce) was added. Following incubation at RT for 40 min, the wells were washed five times, and developed by adding 50 μl of H2SO4 (2 M), and the O.D. at 450 nm was read on a microplate reader (Molecular Devices). The concentration of competitor peptide corresponding to a half-maximal signal (IC50) was determined by interpolation of the resulting binding curve. Each peptide competitor was tested in duplicate in at least two separate experiments.

Fab 4E10 [1] = assay: Surface plasmon resonance (Biacore 2000), Fab 4E10 on CM5 chip; type: binding, human
Chain of Fab 4E10 (heavy, as listed by the source): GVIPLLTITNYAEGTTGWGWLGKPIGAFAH
Method: The affinitiefs of the peptide analogs for 4E10 were also measured by surface plasmon resonance. Surface plasmon resonance experiments were performed using a Biacore 2000 instrument (Uppsala, Sweden). Around 2,200 response units (RU) of Fab 4E10 were coated on CM5 chips. The carboxyl groups on the chip were activated with 1-ethyl-3-(3-dimethylaminopropyl)carbodiimide hydrochloride (EDC) and N-hydroxysuccinimide (NHS). Fifty micrograms of Fab were diluted in 10 mM sodium acetate pH 4.5; a flow rate of 5 μl/min was used. Unreacted carboxyl groups were blocked with 1M ethanolamine at pH 8.5. The control was treated in the same fashion without any antibody present. Different amounts of free peptides were then passed over the surfaces at 30 or 50 μl/min for 2 min. Regeneration was done in HPS-EP buffer, 0.25 NaCl (Biacore) in 10 minutes. The amount of salt was increased compared to the commercial buffer to reduce the non-specific binding. For data evaluation, the BIAevaluation software was used. RI and Rmax were controlled, double referencing were done (0 concentration and start point). Analyses were performed to achieve the best curve fitting and small chi^2 (<1).
Surface plasmon resonance experiments were performed using a Biacore 2000 instrument (Uppsala, Sweden).
Chip preparation: around 2,200 response units (RU) of Fab 4E10 were coated on CM5 chips. The carboxyl groups on the chip were activated with 1-ethyl-3-(3-dimethylaminopropyl) carbodiimide hydrochloride (EDC) and N-hydroxysuccinimide (NHS). Fifty micrograms of Fab was diluted in 10 mM sodium acetate pH 4.5; a flow rate of 5 μl/min was used. Unreacted carboxyl groups were blocked with 1M ethanolamine at pH 8.5. The control was treated in the same fashion without any antibody present.
Experiment: different amounts of free peptides were then passed over the surfaces at 30 or 50 μl/min for 2 min. Regeneration was done in HPS-EP buffer, 0.25 NaCl (Biacore) in 10 min. The amount of salt was increased compared to the commercial buffer to reduce the non-specific binding.
Data evaluation: the BIAevaluation software was used. RI and Rmax were controlled, double referencing were done (0 concentration and start point). Analyses were performed to achieve the best curve fitting and small chi^2 (<1).

[2] = target: recombinant IgG1(kappa) 4E10; assay: competitive ELISA
Chain of recombinant IgG1(kappa) 4E10 (heavy, as listed by the source): as above

Fab 4E10 [3] = assay: SPR (Biacore 2000), Fab 4E10 on CM5 chip, peptide in flow
[4] = target: recombinant IgG1(kappa) 4E10; assay: competitive ELISA: peptide against biotinylated …(biotin)-NH2 for IgG 4E10
[5] = read-out: IC50 (4E10 binding, competitive ELISA)
[6] = Table 5, unconstrained peptide analogs, 4E10 binding, read-out: IC50
[7] = Table 6, constrained analogs, 4E10 binding, read-out: IC50
[8] = Table 7, 4E10 peptide epitopes, read-out: IC50
[9] = Table 7, 4E10 peptide epitopes, read-out: Kd
[10] = Table 6, constrained analogs, 4E10 binding, read-out: Kd

Molecule: SLWNWFDITNWLWYIKKKK [SLWNWFDITNWLWYIKKKK-NH2]
- IC50 (IgG 4E10; [5]): 10 nM

Molecule: SLWNWFDITNWLWKKKK [Peptide 84-4, SLWNWFDITNWLWKKKK-NH2]
- IC50 (IgG 4E10; [6]): 120 nM

Molecule: KKBNWFDITNWLWKBKBK-NH2 (KKXNWFDITNWLWKXKXK-NH2; not fully specified (residues 3, 15, 17); printed as KKBNWFDITNWLWKBKBK-NH2) [Peptide 102-2]
- IC50 (IgG 4E10; [7]): 10 nM

Molecule: NWFDITNWLWRR [Peptide 44-1, NWFDITNWLWRR-NH2]
- IC50 (IgG 4E10; [8]): 600 nM

Molecule: NWFDITNWLWKBKBK-NH2 [Peptide 102-1]
- IC50 (IgG 4E10; [5]): 10 nM

Molecule: NWFCITOWLWKKKK-NH2 (NWFCIT[code O]WLWKKKK-NH2; not fully specified; printed as NWFCITOWLWKKKK-NH2; reading uncertain) [Peptide 104-1]
- IC50 (IgG 4E10; [6]): 40 nM
- IC50 (IgG 4E10; [8]): 40 nM

Molecule: NWFDITN-Aib-LWRR-NH2 [Peptide 33-1]
- increased binding affinity in comparison with its peptide control (IgG 4E10): 3 fold
- IC50 (IgG 4E10; [8]): 100 to 400 nM
- higher affinity of 4E10 than to the original peptide KGND (IgG 4E10): approximately 10^3 fold
- koff (Fab 4E10 [1]; Table 7): 0.13 s⁻¹
- kon (Fab 4E10 [1]; Table 7): 431000 M⁻¹ s⁻¹
- Kd (Fab 4E10 [1]; [9]): 302 nM

Molecule: c(CWFO)ITNWLWKKKK-NH2 (CWF[code O]ITNWLWKKKK-NH2; bridge 1-4; reading uncertain; also: printed as c(CWFO)ITNWLWKKKK-NH2) [Peptide 74-2]
- IC50 (IgG 4E10; [7]): 230 nM
- Kd (Fab 4E10 [1]; [10]): 276 nM

Molecule: KGWNWFDITNWGK [KGND]
- IC50 (IgG 4E10; [6]): > 10000 nM
- IC50 (IgG 4E10; [7]): > 10000 nM
- IC50 (IgG 4E10; [8]): > 10000 nM
- IC50 (IgG 4E10; [5]): 10000 nM

Molecule: NWFc(CITO)WLWKKKK-NH2 (NWFCIT[code O]WLWKKKK-NH2; bridge 4-7; reading uncertain; also: printed as NWFc(CITO)WLWKKKK-NH2) [Peptide 104-2]
- increased binding affinity in comparison with its peptide control (IgG 4E10): 4 fold
- IC50 (IgG 4E10; [7]): 10 nM
- IC50 (IgG 4E10; [8]): 10 nM
- higher affinity of 4E10 than to the original peptide KGND (IgG 4E10): approximately 10^3 fold
- IC50 (IgG 4E10; [5]): 10 nM
- Kd (Fab 4E10 [1]; [10]): 17 nM
- higher affinity of 4E10 than to peptide 33-1 (Fab 4E10 [1]; Table 7): about 17 fold
- koff (Fab 4E10 [1]; Table 7): 0.0034 s⁻¹
- kon (Fab 4E10 [1]; Table 7): 202000 M⁻¹ s⁻¹
- Kd (Fab 4E10 [1]; [9]): 17 nM
- Kd (Fab 4E10 [1]; read-out: Kd (Biacore)): 17 nM

Molecule: WNWFDITNWLWKKKK [Peptide 84-2, WNWFDITNWLWKKKK-NH2]
- IC50 (IgG 4E10; [6]): 120 nM

Molecule: NWFDITNWLWKKKK [Peptide 84-1, NWFDITNWLWKKKK-NH2]
- IC50 (IgG 4E10; [5]): 40 nM
- Kd (Fab 4E10 [1]; Table 5, unconstrained peptide analogs, 4E10 binding, read-out: Kd): 100 nM

B1: peptide 104-2, NWFc(CITO)WLWKKKK-NH2 (peptide)
peptide: NWFCIT[Orn]WLWKKKK-NH2
modifications: bridge 4-7; not fully specified (bridges); printed as peptide 104-2, NWFc(CITO)WLWKKKK-NH2
- fold increase of affinity over its control peptide 104-1 [2]: 4 fold
- Kd (Fab 4E10 [3]): 17 nM
- koff (Fab 4E10 [3]): 0.0034 s⁻¹
- kon (Fab 4E10 [3]): 202000 M⁻¹ s⁻¹
- IC50 [4]: 10 nM

B2: peptide 33-1, NWFDITN-Aib-LWRR-NH2 (peptide)
peptide: NWFDITN[Aib]LWRR-NH2
modifications: N-terminus assumed
SMILES: CC[C@H](C)[C@H](NC(=O)[C@H](CC(=O)O)NC(=O)[C@H](Cc1ccccc1)NC(=O)[C@H](Cc1c[nH]c2ccccc12)NC(=O)[C@@H](N)CC(N)=O)C(=O)N[C@H](C(=O)N[C@@H](CC(N)=O)C(=O)NC(C)(C)C(=O)N[C@@H](CC(C)C)C(=O)N[C@@H](Cc1c[nH]c2ccccc12)C(=O)N[C@@H](CCCNC(=N)N)C(=O)N[C@@H](CCCNC(=N)N)C(N)=O)[C@@H](C)O
- fold increase of binding affinity over its control peptide 44-1 [2]: 3 fold
- Kd (Fab 4E10 [3]): 302 nM
- koff (Fab 4E10 [3]): 0.13 s⁻¹
- kon (Fab 4E10 [3]): 431000 M⁻¹ s⁻¹
- IC50 [4]: 100 to 400 nM

B3: peptide 104-1, NWFCITOWLWKKKK-NH2 (acyclic control) (peptide)
peptide: NWFCIT[Orn]WLWKKKK-NH2
modifications: not fully specified; printed as NWFCITOWLWKKKK-NH2
- IC50 [4]: 40 nM

B4: peptide 84-2, …-NH2 (peptide)
peptide: WNWFDITNWLWKKKK-NH2
- IC50 [4]: 120 nM

B5: peptide 119, …BKBKK-NH2 (peptide)
peptide: NWFDITNWLWYIKXKXKK
modifications: B = Aib at positions 14 and 16; C-terminal amide
- IC50 [4]: 10 nM

B6: peptide 44-1, …-NH2 (peptide)
peptide: NWFDITNWLWRR-NH2
- IC50 [4]: 600 nM

B7: peptide 102-2, KKB…BKBK-NH2 (peptide)
peptide: KK[Aib]NWFDITNWLWK[Aib]K[Aib]K-NH2
modifications: N-terminus assumed
SMILES: CC[C@H](C)[C@H](NC(=O)[C@H](CC(=O)O)NC(=O)[C@H](Cc1ccccc1)NC(=O)[C@H](Cc1c[nH]c2ccccc12)NC(=O)[C@H](CC(N)=O)NC(=O)C(C)(C)NC(=O)[C@H](CCCCN)NC(=O)[C@@H](N)CCCCN)C(=O)N[C@H](C(=O)N[C@@H](CC(N)=O)C(=O)N[C@@H](Cc1c[nH]c2ccccc12)C(=O)N[C@@H](CC(C)C)C(=O)N[C@@H](Cc1c[nH]c2ccccc12)C(=O)N[C@@H](CCCCN)C(=O)NC(C)(C)C(=O)N[C@@H](CCCCN)C(=O)NC(C)(C)C(=O)N[C@@H](CCCCN)C(N)=O)[C@@H](C)O
- IC50 [4]: 10 nM

B8: peptide KGND (…) (peptide)
peptide: KGWNWFDITNWGK
modifications: not fully specified
- IC50 [4]: > 10000 nM

B9: peptide 102-1, …BKBK-NH2 (peptide)
peptide: NWFDITNWLWK[Aib]K[Aib]K-NH2
modifications: N-terminus assumed
SMILES: CC[C@H](C)[C@H](NC(=O)[C@H](CC(=O)O)NC(=O)[C@H](Cc1ccccc1)NC(=O)[C@H](Cc1c[nH]c2ccccc12)NC(=O)[C@@H](N)CC(N)=O)C(=O)N[C@H](C(=O)N[C@@H](CC(N)=O)C(=O)N[C@@H](Cc1c[nH]c2ccccc12)C(=O)N[C@@H](CC(C)C)C(=O)N[C@@H](Cc1c[nH]c2ccccc12)C(=O)N[C@@H](CCCCN)C(=O)NC(C)(C)C(=O)N[C@@H](CCCCN)C(=O)NC(C)(C)C(=O)N[C@@H](CCCCN)C(N)=O)[C@@H](C)O
- IC50 [4]: 10 nM

B10: peptide 74-2, c(CWFO)…-NH2 (peptide)
peptide: CWFXITNWLWKKKK
modifications: cyclic thioether between Cys 1 and ornithine (O) 4; C-terminal amide
- Kd (Fab 4E10 [3]): 276 nM
- IC50 [4]: 230 nM
